Reference: article PMC9403976, “Elucidating the path to Plasmodium prolyl-tRNA synthetase inhibitors that overcome halofuginone resistance” (Nature Communications, 2022)
Where “and” joins values, the source holds several entries; their conditions need not be identical. Equal entries are not always repeated.

Tests used:
[1] = tested on: luciferase-expressing P. berghei ANKA sporozoites; test: P. berghei liver stage assay in HuH7 cells (luciferase, Bright-Glo); assay type: cell-based, Plasmodium berghei; settings: for Parasite Load, dose-response point: single replicates
Procedure: (§1) HuH7 cells (Sigma, Cat#: 01042712, Lot:18H009) were cultured in DMEM + L-Glutamine (Gibco) supplemented with 10% (v/v) heat-inactivated FBS (Sigma) and 1% (v/v) antibiotic/antimycotic (Sigma). Hepatocyte cultures were maintained in a standard tissue culture incubator at 37 °C. Anopheles mosquitoes infected with luciferase-expressing P. berghei ANKA sporozoites were obtained from the Sporocore at the University of Georgia. Liver stage P. berghei assays were completed as previously described. Briefly, 4000 HuH7 cells were seeded into 384-well plates (Corning) 1 day prior to infection. Compounds (0–50 µM) were added in triplicate to wells before infection with 4000 P. berghei sporozoites. […] Relative fluorescence and luminescence signal intensities were normalized to the negative control, 1% DMSO. EC50 values were determined using PRISM (V. 8.4.3–9.1.0, GraphPad) through fitting data to a dose-response curve.

HuH7 cells = test: HuH7 host hepatocyte viability (CellTiter-Fluor); assay type: cell-based, human; settings: for HuH7 Growth, dose-response point: single replicates
Procedure: as §1, with “infection.” for “infection. Compounds (0–50 µM) were added in triplicate to wells before infection with 4000 P. berghei sporozoites.”

P. falciparum Dd2-2D4 [2] = test: P. falciparum ABS short-term resistance susceptibility assay; assay type: cell-based, Plasmodium falciparum; settings: wild-type parasites under intermittent drug pressure
Procedure: Following recrudescence, sensitivity to NCP26 and halofuginone was assayed using the ABS growth assay.

[3] = tested on: HFGR-I P. falciparum (elevated proline homeostasis and PfcProRS^L482H); settings: HFGR-I vs wild-type; cited from earlier work
[4] = tested on: halofuginone-induced P. falciparum (elevated proline homeostasis); settings: within five generations (10 days); cited from earlier work
P. falciparum Dd2-2D4 [5] = settings: halofuginone pressure; cited from earlier work

## O=C(NC1Cc2ccccc2C1)c1nccnc1NC(=O)N1CCCCC1 [NCP26]
[1]; Log[inhibitor] (M) -5.602
  Parasite Load, dose-response point: 4.50E-01 and 4.96E-01 and 3.82E-01
[1]; Log[inhibitor] (M) -6.000
  Parasite Load, dose-response point: 6.73E-01 and 1.77E+00 and 8.83E-01
[1]; Log[inhibitor] (M) -6.301
  Parasite Load, dose-response point: 2.58E+00 and 1.62E+00 and 1.38E+00
[1]; Log[inhibitor] (M) -6.602
  Parasite Load, dose-response point: 2.09E+01 and 4.21E+01 and 3.50E+01
[1]; Log[inhibitor] (M) -7.602
  Parasite Load, dose-response point: 1.02E+02 and 9.26E+01 and 8.31E+01
[1]; Log[inhibitor] (M) -8.602
  Parasite Load, dose-response point: 9.21E+01 and 5.24E+01 and 5.53E+01
[1]; Log[inhibitor] (M) -9.602
  Parasite Load, dose-response point: 7.79E+01 and 6.82E+01 and 1.12E+02
[1]; Log[inhibitor] (M) -9.903
  Parasite Load, dose-response point: 5.64E+01 and 9.94E+01 and 8.54E+01
[1]; Plasmodium berghei, Huh-7, HuH7 cells infected with sporozoites, ~44 hpi
  EC50: 232 nM
HuH7 cells; Homo sapiens, Huh-7, HuH7 cell viability, ~44 hpi
  EC50: > 2500 nM
HuH7 cells; Log[inhibitor] (M) -5.602
  HuH7 Growth, dose-response point: 6.24E+01 and 5.40E+01 and 5.94E+01
HuH7 cells; Log[inhibitor] (M) -6.000
  HuH7 Growth, dose-response point: 6.34E+01 and 6.90E+01 and 6.75E+01
HuH7 cells; Log[inhibitor] (M) -6.301
  HuH7 Growth, dose-response point: 6.99E+01 and 7.05E+01 and 6.37E+01
HuH7 cells; Log[inhibitor] (M) -6.602
  HuH7 Growth, dose-response point: 7.89E+01 and 8.13E+01 and 7.81E+01
HuH7 cells; Log[inhibitor] (M) -7.602
  HuH7 Growth, dose-response point: 9.65E+01 and 1.01E+02 and 8.52E+01
HuH7 cells; Log[inhibitor] (M) -8.602
  HuH7 Growth, dose-response point: 9.96E+01 and 1.08E+02 and 9.36E+01
HuH7 cells; Log[inhibitor] (M) -9.602
  HuH7 Growth, dose-response point: 1.01E+02 and 1.06E+02 and 1.03E+02
HuH7 cells; Log[inhibitor] (M) -9.903
  HuH7 Growth, dose-response point: 1.05E+02 and 1.11E+02 and 1.08E+02
P. falciparum Dd2-2D4 [2]
  induction of rapid resistance: did not induce rapid resistance

## O=C(CC1NCCCC1O)Cn1cnc2cc(Br)c(Cl)cc2c1=O (stereo not shown) [Halofuginone]
[3]
  fold less sensitive (HFGR-I parasites): ~ 400 fold
[4]
  tolerance of halofuginone-induced bulk cultures: 10–20 fold
P. falciparum Dd2-2D4 [5]
  generations until resistant parasites arise: < 5 generations
